# Measurements: US12466839B2, “Allosteric AKT inhibitors for use in the treatment of Hereditary Hemorrhagic Telangiectasia” (VADERIS THERAPEUTICS AG, priority 2020, dated 2025)
# What was measured:
# full length AKT2 = full length AKT2 (Homo sapiens, UniProt P31751); experiment: Biochemical kinase assay
# AKT2 = AKT2 (Homo sapiens, UniProt P31751); experiment: Panel of 450 kinases; assay type: biochemical
# KChIP2 (Homo sapiens) = experiment: Cardiac ion channel profile; assay type: cell-based
# KCNQ1 = KCNQ1 (Homo sapiens, UniProt P51787); experiment: Cardiac ion channel profile; assay type: cell-based
# Kir2.1 = Kir2.1 (Homo sapiens, UniProt P63252); experiment: Cardiac ion channel profile; assay type: cell-based
# HCN4 = HCN4 (Homo sapiens, UniProt Q9Y3Q4); experiment: Cardiac ion channel profile; assay type: cell-based
# AKT = AKT inhibition in primary lung endothelial cells with normal Eng expression (western blot); assay type: cell-based; settings: Mus musculus, Endothelial cell; lung ECs from controls with normal level of Eng expression; VEGF-A stimulation
# Description: Lungs from Engflox/flox pups were surgically removed, rinsed in ice-cold DMEM and endothelial cells were isolated as described in Galaris et al., (2021) “In vitro Three-Dimensional Sprouting Assay of Angiogenesis using Mouse Embryonic Stem Cells for Vascular Disease Modeling and Drug Testing” J Vis Exp (171). In summary, tissues were minced by the use of scissors, digested in DMEM-3 mg·ml-1 Collagenase A (10103586001, Roche) for 15 min at 37° C. and then filtered through a 70-μm strainer. The cell suspension was centrifuged at 200 g for 5 min and CD45+ cells were removed using Dynabeads sheep anti-Rat IgG (11035, Invitrogen) coated with rat anti-mouse CD45 antibody (550539, BD Pharmigen). Endothelial cells were sorted using Dynabeads sheep anti-Rat IgG (11035, Invitrogen) coated with rat anti-mouse PECAM1 antibody (550274, BD Pharmigen) according to the manufacturer's instructions. After washing 5 times with DMEM-0.1% BSA, cells were seeded in 6 well plates. Lung and liver ECs were maintained for two-three passages in Endothelial Cell Growth Medium 2 (C-22011, PromoCell) complemented with Fetal Calf Serum, Human Epidermal Growth Factors, Basic Fibroblast Growth Factor, Insulin like Growth Factor, Human Vascular Endothelial Growth Factor-165, Ascorbic acid, Heparin and Hydrocortisone (C-39211, SupplementPack EC GM2, PromoCell). […]
# [1] = test system: AKT kinase in Pi3Kα or PTEN mutant cells lines (e.g. MCF7, BT474 or LnCAP); experiment: AKT kinase inhibition in Pi3Kα or PTEN mutant cell lines; assay type: cell-based; settings: read-out: IC50 range for AKT kinase inhibition
# 5-HT2A = target: T1, 5-HT2A (Homo sapiens, UniProt P28223); experiment: Millipore Drug Discovery Safety and Liability Panel; assay type: cell-based
# T1 construct: purchased Millipore
# BLT1 = target: T2, BLT1 (Homo sapiens, UniProt Q15722); experiment: as above; assay type: cell-based
# T2 construct: purchased Millipore
# CCR1 = target: T3, CCR1 (Homo sapiens, UniProt P32246); experiment: as above; assay type: cell-based
# T3 construct: purchased Millipore
# CCR2B = target: T4, CCR2B (Homo sapiens, UniProt P41597); experiment: as above; assay type: cell-based
# T4 construct: purchased Millipore
# GnRH = target: T5, GnRH (Homo sapiens, UniProt P30968); experiment: as above; assay type: cell-based
# T5 construct: purchased Millipore
# GPR14 = target: T6, GPR14 (Homo sapiens, UniProt Q9UKP6); experiment: as above; assay type: cell-based
# T6 construct: purchased Millipore
# NK3 = target: T7, NK3 (Homo sapiens, UniProt P29371); experiment: as above; assay type: cell-based
# T7 construct: purchased Millipore
# NTR1 = target: T8, NTR1 (Homo sapiens, UniProt P30989); experiment: as above; assay type: cell-based
# T8 construct: Millipore
# P2Y1 = target: T9, P2Y1 (Homo sapiens, UniProt P47900); experiment: as above; assay type: cell-based
# T9 construct: Millipore
# PK1 = target: T10, PK1 (Homo sapiens, UniProt Q8TCW9); experiment: as above; assay type: cell-based
# T10 construct: Millipore
# S1P3 = target: T11, S1P3 (Homo sapiens, UniProt Q99500); experiment: as above; assay type: cell-based
# T11 construct: Millipore
# [2] = read-out: AGONIST mean % increase in activity
# [3] = read-out: ANTAGONIST mean % inhibition
# T8 sequence (P30989 whole entry, species assumed): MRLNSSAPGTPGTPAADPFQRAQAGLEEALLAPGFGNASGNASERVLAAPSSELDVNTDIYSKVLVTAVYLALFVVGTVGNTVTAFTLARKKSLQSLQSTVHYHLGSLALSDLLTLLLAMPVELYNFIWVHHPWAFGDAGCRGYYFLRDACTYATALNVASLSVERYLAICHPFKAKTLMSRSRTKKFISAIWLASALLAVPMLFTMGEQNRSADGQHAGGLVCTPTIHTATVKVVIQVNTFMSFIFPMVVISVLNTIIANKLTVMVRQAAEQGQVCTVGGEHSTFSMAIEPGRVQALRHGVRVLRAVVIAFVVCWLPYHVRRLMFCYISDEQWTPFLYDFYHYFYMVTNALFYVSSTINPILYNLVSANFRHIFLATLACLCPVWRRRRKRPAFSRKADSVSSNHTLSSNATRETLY
# T5 sequence (P30968 whole entry): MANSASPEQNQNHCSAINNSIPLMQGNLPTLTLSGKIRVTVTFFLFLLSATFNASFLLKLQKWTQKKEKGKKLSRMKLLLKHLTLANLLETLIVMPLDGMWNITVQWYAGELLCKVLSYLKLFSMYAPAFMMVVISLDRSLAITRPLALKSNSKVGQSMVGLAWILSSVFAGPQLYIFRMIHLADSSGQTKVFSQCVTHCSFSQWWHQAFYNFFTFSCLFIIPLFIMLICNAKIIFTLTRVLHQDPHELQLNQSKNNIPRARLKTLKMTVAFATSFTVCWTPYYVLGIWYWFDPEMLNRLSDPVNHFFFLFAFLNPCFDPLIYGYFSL
# T1 sequence (P28223 whole entry): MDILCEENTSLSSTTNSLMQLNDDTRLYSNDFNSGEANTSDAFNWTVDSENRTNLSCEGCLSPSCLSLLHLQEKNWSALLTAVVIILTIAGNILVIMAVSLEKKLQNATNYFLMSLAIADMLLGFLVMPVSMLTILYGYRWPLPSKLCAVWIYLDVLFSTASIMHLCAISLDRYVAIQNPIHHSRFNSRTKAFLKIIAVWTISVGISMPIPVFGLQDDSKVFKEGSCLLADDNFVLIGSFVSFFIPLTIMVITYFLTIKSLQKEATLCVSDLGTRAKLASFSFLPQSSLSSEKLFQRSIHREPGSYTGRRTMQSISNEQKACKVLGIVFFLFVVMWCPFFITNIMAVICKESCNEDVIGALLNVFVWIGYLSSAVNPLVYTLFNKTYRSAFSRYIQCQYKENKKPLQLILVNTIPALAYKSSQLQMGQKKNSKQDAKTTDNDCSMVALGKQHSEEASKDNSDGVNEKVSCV
# T3 sequence (P32246 whole entry): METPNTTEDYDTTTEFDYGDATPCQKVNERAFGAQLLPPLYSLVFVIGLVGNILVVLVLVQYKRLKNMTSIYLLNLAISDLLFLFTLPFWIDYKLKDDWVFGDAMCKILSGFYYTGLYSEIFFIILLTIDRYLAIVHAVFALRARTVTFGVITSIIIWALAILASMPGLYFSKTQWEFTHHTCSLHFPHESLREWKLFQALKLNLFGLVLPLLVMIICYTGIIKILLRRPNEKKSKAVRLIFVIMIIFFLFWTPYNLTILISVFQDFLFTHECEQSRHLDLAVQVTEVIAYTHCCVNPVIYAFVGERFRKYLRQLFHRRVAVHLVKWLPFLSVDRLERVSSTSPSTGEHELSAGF
# T7 sequence (P29371 whole entry): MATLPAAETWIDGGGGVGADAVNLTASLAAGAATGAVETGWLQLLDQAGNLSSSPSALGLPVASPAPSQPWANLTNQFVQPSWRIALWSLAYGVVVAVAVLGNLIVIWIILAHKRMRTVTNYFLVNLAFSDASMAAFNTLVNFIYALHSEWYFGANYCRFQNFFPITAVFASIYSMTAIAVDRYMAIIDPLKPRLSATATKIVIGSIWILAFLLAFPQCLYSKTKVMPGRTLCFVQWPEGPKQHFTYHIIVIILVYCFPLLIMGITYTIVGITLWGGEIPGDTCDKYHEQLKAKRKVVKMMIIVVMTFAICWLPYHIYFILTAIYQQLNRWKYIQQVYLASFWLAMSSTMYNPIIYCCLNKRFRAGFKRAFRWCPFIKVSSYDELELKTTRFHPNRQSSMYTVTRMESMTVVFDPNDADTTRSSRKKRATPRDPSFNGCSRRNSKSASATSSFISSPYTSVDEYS
# T6 sequence (Q9UKP6 whole entry, species assumed): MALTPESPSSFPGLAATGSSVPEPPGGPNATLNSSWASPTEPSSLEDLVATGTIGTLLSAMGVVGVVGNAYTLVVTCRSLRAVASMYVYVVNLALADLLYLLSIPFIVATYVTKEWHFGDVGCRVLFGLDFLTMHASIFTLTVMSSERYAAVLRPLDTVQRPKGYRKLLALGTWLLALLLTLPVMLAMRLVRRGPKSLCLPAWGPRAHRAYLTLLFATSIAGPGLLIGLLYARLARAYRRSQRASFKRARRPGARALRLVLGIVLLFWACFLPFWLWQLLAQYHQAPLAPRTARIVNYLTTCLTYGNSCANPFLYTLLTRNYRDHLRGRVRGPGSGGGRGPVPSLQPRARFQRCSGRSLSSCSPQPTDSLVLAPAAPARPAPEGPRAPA
# T2 sequence (Q15722 whole entry): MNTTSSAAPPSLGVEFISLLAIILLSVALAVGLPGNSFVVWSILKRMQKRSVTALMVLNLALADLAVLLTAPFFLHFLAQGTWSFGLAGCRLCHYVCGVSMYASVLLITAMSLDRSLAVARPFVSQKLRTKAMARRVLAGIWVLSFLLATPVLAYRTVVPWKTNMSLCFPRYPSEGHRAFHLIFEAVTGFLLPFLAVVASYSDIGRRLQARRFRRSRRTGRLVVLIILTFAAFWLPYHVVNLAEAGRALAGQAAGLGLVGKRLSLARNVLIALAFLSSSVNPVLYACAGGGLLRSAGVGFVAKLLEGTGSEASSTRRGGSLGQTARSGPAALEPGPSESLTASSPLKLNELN
# T11 sequence (Q99500 whole entry, species assumed): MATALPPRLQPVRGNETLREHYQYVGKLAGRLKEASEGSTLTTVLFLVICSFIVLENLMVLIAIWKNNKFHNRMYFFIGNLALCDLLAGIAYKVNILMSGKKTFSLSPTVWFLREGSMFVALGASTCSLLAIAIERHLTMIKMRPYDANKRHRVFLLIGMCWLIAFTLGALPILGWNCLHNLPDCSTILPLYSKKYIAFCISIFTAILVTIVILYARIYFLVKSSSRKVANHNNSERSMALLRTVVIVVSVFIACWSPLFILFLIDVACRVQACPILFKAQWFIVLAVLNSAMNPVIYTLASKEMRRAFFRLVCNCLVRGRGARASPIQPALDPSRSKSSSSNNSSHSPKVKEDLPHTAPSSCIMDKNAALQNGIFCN
# T4 sequence (P41597 1-360 isoform P41597-2): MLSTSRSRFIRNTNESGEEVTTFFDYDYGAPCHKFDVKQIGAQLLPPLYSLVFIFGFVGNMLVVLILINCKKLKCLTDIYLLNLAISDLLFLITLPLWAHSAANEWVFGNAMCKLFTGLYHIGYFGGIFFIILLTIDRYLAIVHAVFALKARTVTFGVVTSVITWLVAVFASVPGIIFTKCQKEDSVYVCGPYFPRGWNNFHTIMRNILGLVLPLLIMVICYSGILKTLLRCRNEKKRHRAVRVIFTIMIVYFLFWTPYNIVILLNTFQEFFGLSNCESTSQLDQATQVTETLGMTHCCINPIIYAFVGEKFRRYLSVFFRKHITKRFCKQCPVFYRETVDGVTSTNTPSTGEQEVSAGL
# T10 sequence (Q8TCW9 whole entry): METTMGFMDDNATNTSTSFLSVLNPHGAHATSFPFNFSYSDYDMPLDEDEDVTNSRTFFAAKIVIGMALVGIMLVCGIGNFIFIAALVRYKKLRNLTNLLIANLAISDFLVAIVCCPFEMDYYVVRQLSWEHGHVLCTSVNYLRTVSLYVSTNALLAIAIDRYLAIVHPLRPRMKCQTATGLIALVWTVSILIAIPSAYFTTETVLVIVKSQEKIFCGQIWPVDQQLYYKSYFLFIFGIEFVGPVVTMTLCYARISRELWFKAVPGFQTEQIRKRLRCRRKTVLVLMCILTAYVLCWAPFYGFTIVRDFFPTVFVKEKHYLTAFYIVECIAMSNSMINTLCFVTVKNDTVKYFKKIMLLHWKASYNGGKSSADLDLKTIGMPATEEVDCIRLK
# T9 sequence (P47900 whole entry, species assumed): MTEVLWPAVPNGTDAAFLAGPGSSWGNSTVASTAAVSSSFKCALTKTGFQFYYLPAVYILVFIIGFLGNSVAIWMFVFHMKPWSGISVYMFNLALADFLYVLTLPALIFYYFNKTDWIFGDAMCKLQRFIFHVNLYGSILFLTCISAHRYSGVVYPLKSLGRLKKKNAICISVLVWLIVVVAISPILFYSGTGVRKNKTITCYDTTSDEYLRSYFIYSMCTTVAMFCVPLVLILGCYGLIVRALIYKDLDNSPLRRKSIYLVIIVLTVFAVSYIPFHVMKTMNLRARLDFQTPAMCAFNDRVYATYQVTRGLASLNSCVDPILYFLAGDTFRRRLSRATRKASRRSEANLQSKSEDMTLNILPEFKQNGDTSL
# Chain of Kir2.1 (P63252 whole entry): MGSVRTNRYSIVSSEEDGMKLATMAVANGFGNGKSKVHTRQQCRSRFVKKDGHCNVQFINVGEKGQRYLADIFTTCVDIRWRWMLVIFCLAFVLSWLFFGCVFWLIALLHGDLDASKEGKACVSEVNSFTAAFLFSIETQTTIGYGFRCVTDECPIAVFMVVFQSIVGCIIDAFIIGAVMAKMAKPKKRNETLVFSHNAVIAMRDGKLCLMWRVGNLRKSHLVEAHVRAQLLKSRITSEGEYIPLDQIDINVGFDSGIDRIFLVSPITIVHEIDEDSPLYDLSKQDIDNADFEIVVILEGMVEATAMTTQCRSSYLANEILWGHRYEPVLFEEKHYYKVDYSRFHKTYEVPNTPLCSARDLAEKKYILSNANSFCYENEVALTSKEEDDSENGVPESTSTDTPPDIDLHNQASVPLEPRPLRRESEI
smiles,measurement,setting,value
"CCN1C(=O)COc2nc(-c3ccc(C4(N)CC(O)C4)cc3)c(-c3ccccc3)cc21.O=C(O)C(O)C(O)C(=O)O [VAD044, 6-(4-(1-amino-3-hydroxycyclobutyl)phenyl)-1-ethyl-7-phenyl-1H-pyrido[2,3-b][1,4]oxazin-2(3H)-one L-tartrate]",IC50,full length AKT2,95 nM
same,inhibition at 10 µM,AKT2,95%
same,inhibition at 10 µM,KChIP2 (Homo sapiens),< 25%
same,inhibition at 10 µM,KCNQ1,< 25%
same,inhibition at 10 µM,Kir2.1,< 25%
same,inhibition at 10 µM,HCN4,< 25%
same,IC50,AKT,55 nM
same,IC50,[1],50 to 130 nM
same,activation at 10 µM,5-HT2A; [2],1.3%
same,inhibition at 10 µM,5-HT2A; [3],-0.7%
same,activation at 10 µM,"BLT1; BLT1, 10 μM, read-out: AGONIST mean % increase in activity",-0.2%
same,inhibition at 10 µM,BLT1; [3],5.6%
same,activation at 10 µM,"CCR1; CCR1, 10 μM, read-out: AGONIST mean % increase in activity",0.2%
same,inhibition at 10 µM,CCR1; [3],9.5%
same,activation at 10 µM,"CCR2B; CCR2B, 10 μM, read-out: AGONIST mean % increase in activity",-0.1%
same,inhibition at 10 µM,CCR2B; [3],9.1%
same,activation at 10 µM,"GnRH; GnRH, 10 μM, read-out: AGONIST mean % increase in activity",-0.6%
same,inhibition at 10 µM,GnRH; [3],4%
same,activation at 10 µM,GPR14; [2],29.5%
same,inhibition at 10 µM,GPR14; [3],52.9%
same,activation at 10 µM,"NK3; NK3, 10 μM, read-out: AGONIST mean % increase in activity",-0.4%
same,inhibition at 10 µM,NK3; [3],16.9%
same,activation at 10 µM,"NTR1; NTR1, 10 μM, read-out: AGONIST mean % increase in activity",-0.6%
same,inhibition at 10 µM,NTR1; [3],6.1%
same,AGONIST mean % increase in activity,P2Y1; 10 μM,1%
same,inhibition at 10 µM,P2Y1; [3],50.6%
same,inhibition at 10 µM,"PK1; PK-1, read-out: ANTAGONIST mean % inhibition",-2.1%
same,activation at 10 µM,"PK1; PK-1, PK1, 10 μM, read-out: AGONIST mean % increase in activity",0%
same,activation at 10 µM,"S1P3; S1P3, 10 μM, read-out: AGONIST mean % increase in activity",-0.4%
same,inhibition at 10 µM,S1P3; [3],-0.6%
